Results published in patent US7396837B2, “Antitumoral analogs of lamellarins” (Pharma Mar, S.A.U., priority 2002, dated 2008).

What was measured:
Format in all cases: cell-based
DU-145 = test: SRB colorimetric cell growth inhibition assay, DU-145; conditions: DU-145; for GI50: GI=growth inhibition, read-out: GI50 DU-145; for CC50: cell killing (cytotoxic effect), read-out: LC50 DU-145; for TGI DU-145: total growth inhibition (cytostatic effect)
Procedure, shortened: (§1)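 Human tumour cells were exposed continuously to the test sample, and growth and viability were quantified by sulforhodamine B staining. Means ± SD came from triplicate wells, and GI, TGI (cytostatic) and LC (cell killing) parameters were derived.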

LNCaP = test: SRB colorimetric cell growth inhibition assay, LNCaP; conditions: LN-caP; for GI50: GI=growth inhibition, read-out: GI50 LN-caP; for CC50: cell killing (cytotoxic effect), read-out: LC50 LN-caP; for TGI LN-caP: total growth inhibition (cytostatic effect)
Procedure, shortened: as §1

HT-29 = test: SRB colorimetric cell growth inhibition assay, HT-29; conditions: HT-29; for GI50: GI=growth inhibition, read-out: GI50 HT-29; for CC50: cell killing (cytotoxic effect), read-out: LC50 HT-29; for TGI HT-29: total growth inhibition (cytostatic effect)
Procedure, shortened: as §1

SK-MEL-28 = test: SRB colorimetric cell growth inhibition assay, SK-MEL-28; conditions: MEL-28; for GI50: GI=growth inhibition, read-out: GI50 MEL-28; for CC50: cell killing (cytotoxic effect), read-out: LC50 MEL-28; for TGI MEL-28: total growth inhibition (cytostatic effect)
Procedure, shortened: as §1

HeLa-APL = test: SRB colorimetric cell growth inhibition assay, HeLa-APL (aplidine resistant); conditions: HELA-APL; for GI50: GI=growth inhibition, read-out: GI50 HELA-APL; for CC50: cell killing (cytotoxic effect), read-out: LC50 HELA-APL; for TGI HELA-APL: total growth inhibition (cytostatic effect)
Procedure, shortened: as §1

LoVo = test: SRB colorimetric cell growth inhibition assay, LoVo; conditions: LOVO; for GI50: GI=growth inhibition, read-out: GI50 LOVO; for CC50: cell killing (cytotoxic effect), read-out: LC50 LOVO; for TGI LOVO: total growth inhibition (cytostatic effect)
Procedure, shortened: as §1

HeLa = test: SRB colorimetric cell growth inhibition assay, HeLa; conditions: HELA; for GI50: GI=growth inhibition, read-out: GI50 HELA; for CC50: cell killing (cytotoxic effect), read-out: LC50 HELA; for TGI HELA: total growth inhibition (cytostatic effect)
Procedure, shortened: as §1

IGROV = test: SRB colorimetric cell growth inhibition assay, IGROV; conditions: IGROV; for GI50: GI=growth inhibition, read-out: GI50 IGROV; for CC50: cell killing (cytotoxic effect), read-out: LC50 IGROV; for TGI IGROV: total growth inhibition (cytostatic effect)
Procedure, shortened: as §1

LoVo-Dox = test: SRB colorimetric cell growth inhibition assay, LoVo-Dox (MDR); conditions: LOVO-DOX; for GI50: GI=growth inhibition, read-out: GI50 LOVO-DOX; for CC50: cell killing (cytotoxic effect), read-out: LC50 LOVO-DOX; for TGI LOVO-DOX: total growth inhibition (cytostatic effect)
Procedure, shortened: as §1

A-549 = test: SRB colorimetric cell growth inhibition assay, A-549; conditions: A-549; for GI50: GI=growth inhibition, read-out: GI50 A-549; for CC50: cell killing (cytotoxic effect), read-out: LC50 A-549; for TGI A-549: total growth inhibition (cytostatic effect)
Procedure, shortened: as §1

PANC-1 = test: SRB colorimetric cell growth inhibition assay, PANC-1; conditions: PANC-1; for GI50: GI=growth inhibition, read-out: GI50 PANC-1; for CC50: cell killing (cytotoxic effect), read-out: LC50 PANC-1; for TGI PANC-1: total growth inhibition (cytostatic effect)
Procedure, shortened: as §1

SK-BR-3 = test: SRB colorimetric cell growth inhibition assay, SK-BR-3; conditions: SK-BR-3; for GI50: GI=growth inhibition, read-out: GI50 SK-BR-3; for CC50: cell killing (cytotoxic effect), read-out: LC50 SK-BR-3; for TGI SK-BR-3: total growth inhibition (cytostatic effect)
Procedure, shortened: as §1

K-562 = test: SRB colorimetric cell growth inhibition assay, K-562; conditions: K-562; for GI50: GI=growth inhibition, read-out: GI50 K-562; for CC50: cell killing (cytotoxic effect), read-out: LC50 K-562; for TGI K-562: total growth inhibition (cytostatic effect)
Procedure, shortened: as §1

IGROV-ET = test: SRB colorimetric cell growth inhibition assay, IGROV-ET (ET-743 resistant); conditions: IGROV-ET; for GI50: GI=growth inhibition, read-out: GI50 IGROV-ET; for CC50: cell killing (cytotoxic effect), read-out: LC50 IGROV-ET; for TGI IGROV-ET: total growth inhibition (cytostatic effect)
Procedure, shortened: as §1

COc1cc2c(cc1O)oc(=O)c1c2c(-c2ccc(OC(=O)[C@H](C)N)c(OC)c2)c2c3cc(OC)c(O)cc3ccn21.Cl [Compound 238] was tested, and the GI50 (DU-145) was 45.8 nM, the CC50 (DU-145) was 16500 nM and the “TGI DU-145” value (DU-145) was 9.65E−08 Molar. The GI50 (LNCaP) was 2130 nM, the CC50 (LNCaP) was 16500 nM and the “TGI LN-caP” value (LNCaP) was 1.65E−05 Molar. For the same compound, the GI50 (HT-29) was 2650 nM, the CC50 (HT-29) was 16500 nM and the “TGI HT-29” value (HT-29) was 1.06E−05 Molar. For the same compound, the GI50 (SK-MEL-28) was 52.6 nM, the CC50 (SK-MEL-28) was 12500 nM and the “TGI MEL-28” value (SK-MEL-28) was 3.51E−07 Molar. For the same compound, the GI50 (HeLa-APL) was 157 nM, the CC50 (HeLa-APL) was 1760 nM and the “TGI HELA-APL” value (HeLa-APL) was 5.16E−07 Molar. The GI50 (LoVo) was 57 nM, the CC50 (LoVo) was 1290 nM and the “TGI LOVO” value (LoVo) was 2.26E−07 Molar. For the same compound, the GI50 (HeLa) was 52.2 nM, the CC50 (HeLa) was 1240 nM and the “TGI HELA” value (HeLa) was 1.31E−07 Molar. For the same compound, the GI50 (IGROV) was 79.9 nM, the CC50 (IGROV) was 1260 nM and the “TGI IGROV” value (IGROV) was 2.82E−07 Molar. The GI50 (LoVo-Dox) was 2260 nM, the CC50 (LoVo-Dox) was 16500 nM and the “TGI LOVO-DOX” value (LoVo-Dox) was 8.98E−07 Molar. For the same compound, the GI50 (A-549) was 45.8 nM, the CC50 (A-549) was 16500 nM and the “TGI A-549” value (A-549) was 4.38E−07 Molar. For the same compound, the GI50 (PANC-1) was 25.4 nM, the CC50 (PANC-1) was 1610 nM and the “TGI PANC-1” value (PANC-1) was 2.50E−07 Molar. For the same compound, the GI50 (SK-BR-3) was 153 nM, the CC50 (SK-BR-3) was 16500 nM and the “TGI SK-BR-3” value (SK-BR-3) was 1.61E−06 Molar. For the same compound, the GI50 (K-562) was 43.3 nM, the CC50 (K-562) was 1200 nM and the “TGI K-562” value (K-562) was 2.47E−07 Molar. For the same compound, the GI50 (IGROV-ET) was 41.3 nM, the CC50 (IGROV-ET) was 16500 nM and the “TGI IGROV-ET” value (IGROV-ET) was 1.44E−07 Molar.

COc1cc(-c2c3c4cc(OC)c(OC(=O)[C@H](C)N)cc4oc(=O)c3n3ccc4cc(O)c(OC)cc4c23)ccc1O.Cl [Compound 240] was tested, and the GI50 (DU-145) was 60.6 nM, the CC50 (DU-145) was 16500 nM and the “TGI DU-145” value (DU-145) was 1.34E−07 Molar. For the same compound, the GI50 (LNCaP) was 4090 nM, the CC50 (LNCaP) was 16500 nM and the “TGI LN-caP” value (LNCaP) was 1.65E−05 Molar. The GI50 (HT-29) was 1640 nM, the CC50 (HT-29) was 16500 nM and the “TGI HT-29” value (HT-29) was 1.59E−05 Molar. For the same compound, the GI50 (SK-MEL-28) was 99.7 nM, the CC50 (SK-MEL-28) was 1440 nM and the “TGI MEL-28” value (SK-MEL-28) was 3.81E−07 Molar. The GI50 (HeLa-APL) was 341 nM, the CC50 (HeLa-APL) was 7610 nM and the “TGI HELA-APL” value (HeLa-APL) was 1.40E−06 Molar. The GI50 (LoVo) was 170 nM, the CC50 (LoVo) was 1520 nM and the “TGI LOVO” value (LoVo) was 5.09E−07 Molar. For the same compound, the GI50 (HeLa) was 57.5 nM, the CC50 (HeLa) was 1400 nM and the “TGI HELA” value (HeLa) was 1.49E−07 Molar. For the same compound, the GI50 (IGROV) was 136 nM, the CC50 (IGROV) was 3640 nM and the “TGI IGROV” value (IGROV) was 5.22E−07 Molar. The GI50 (LoVo-Dox) was 461 nM, the CC50 (LoVo-Dox) was 16500 nM and the “TGI LOVO-DOX” value (LoVo-Dox) was 1.15E−06 Molar. The GI50 (A-549) was 126 nM, the CC50 (A-549) was 1510 nM and the “TGI A-549” value (A-549) was 4.70E−07 Molar. For the same compound, the GI50 (PANC-1) was 70.5 nM, the CC50 (PANC-1) was 8860 nM and the “TGI PANC-1” value (PANC-1) was 6.82E−07 Molar. For the same compound, the GI50 (SK-BR-3) was 59.3 nM, the CC50 (SK-BR-3) was 16500 nM and the “TGI SK-BR-3” value (SK-BR-3) was 3.43E−07 Molar. For the same compound, the GI50 (K-562) was 124 nM, the CC50 (K-562) was 2090 nM and the “TGI K-562” value (K-562) was 4.50E−07 Molar. The GI50 (IGROV-ET) was 82.4 nM, the CC50 (IGROV-ET) was 12900 nM and the “TGI IGROV-ET” value (IGROV-ET) was 3.66E−07 Molar.
